Columns and labels:
[1] = tested on: His6-AbGtr18; format: biochemical, A. baumannii K8
[2] = tested on: MBP-AbGtr18-His6; format: biochemical, A. baumannii K8
[3] = tested on: LpCLS or NmCSS, with or without PmAldolase; format: biochemical
[4] = tested on: His6-AbGtr18; assay: Effects of metal ions, EDTA, and DTT on the activity of His6-AbGtr18; format: biochemical, A. baumannii K8; details: donor CMP-Leg5,7Ac2; for Effect on the activity of AbGtr18: 10 mM additive, 40° C., 30 minutes, pH 6.0
Description: Effects of metal ions, EDTA, and a reducing reagent DTT on the activity of His6-AbGtr18. Enzymatic assays were carried out in duplicate at 40° C. for 30 minutes in a total volume of 10 μL in citric acid-sodium citrate buffer ([…], pH 6.0) containing 1 mM CMP-Leg5,7Ac2, 1 mM GalNAcα2AA, His6-AbGtr18 (0.64 μM), and 10 mM of CaCl2), CuSO4, MgCl2, MnCl2, NiSO4, ZnCl2, ethylenediaminetetraacetic acid (EDTA), or dithiothreitol (DTT). Reactions without metal ions, EDTA, or DTT were used as controls. The reactions were quenched by adding 40 μL methanol. Samples were centrifuged, and then analyzed by UHPLC as described above for pH profile studies.

Row | Compound | Sialoside yield (%) 20 h [2] | CMP-Sia Yield (%) [3] | Sialoside yield (%) 0.5 h [2] | also measured
1 | CC(=O)N[C@H]1[C@@H](OCCCNC(=O)OCc2ccccc2)O[C@H](CO)[C@@H](O)[C@@H]1O [GlcNAcαProNHCbz] | – | – | – | Activity of His6-AbGtr18 towards acceptor (in words) [1]: much lower efficiencies; Yield (%) 15 min [1]: 0.5 ± 0.1%; Yield (%) 20 h [1]: 20.4 ± 0.1%
2 | CC(=O)N[C@H]1[C@H](OCCCNC(=O)OCc2ccccc2)O[C@H](CO)[C@@H](O)[C@@H]1O [GlcNAcβProNHCbz] | – | – | – | Activity of His6-AbGtr18 towards acceptor (in words) [1]: trace activity; Yield (%) 20 h [1]: 1.0 ± 0.1%
3 | O=C(O)C1(O)C[C@H](O)[C@@H](O)[C@H]([C@H](O)[C@H](O)CO)O1 (stereo partly drawn) [Kdn] | 9.6 ± 0.1% | >99% | – | Suitability as donor substrate for MBP-AbGtr18-His6 (in words) [2]: poor donor substrates
4 | CC(=O)N[C@H]1[C@H](OCCCNC(=O)OCc2ccccc2)O[C@H](CO)[C@@H](O[C@@H]2O[C@H](CO)[C@H](O)[C@H](O)[C@H]2O)[C@@H]1O [LacNAcβProNHCbz] | – | – | – | Activity of His6-AbGtr18 towards acceptor (in words) [1]: limited activity; Yield (%) 20 h [1]: 7.7 ± 0.1%
5 | O=C(NCCCO[C@@H]1O[C@H](CO)[C@@H](O[C@@H]2O[C@H](CO)[C@H](O)[C@H](O)[C@H]2O)[C@H](O)[C@H]1O)OCc1ccccc1 [LacβProNHCbz] | – | – | – | Activity of His6-AbGtr18 towards acceptor (in words) [1]: limited activity; Yield (%) 20 h [1]: 13.8 ± 0.2%
6 | C[C@@H](O)[C@@H](N=[N+]=[N-])[C@@H]1OC(O)(C(=O)O)C[C@H](O)[C@H]1N=[N+]=[N-] (stereo partly drawn) [Leg5,7diN3] | 68.4 ± 1.5% | >99% | 44.3 ± 1.6% | Suitability as donor substrate for MBP-AbGtr18-His6 (in words) [2]: suitable but less efficient donor substrates
7 | CC(=O)NC[C@H]1OC(O)[C@@H](NC(C)=O)[C@@H](O)[C@@H]1NC(C)=O (stereo partly drawn) [Man2,4,6triNAc] | 2.8 ± 0.1% | 24.1 ± 1.1% | – | –
8 | CC(=O)N[C@H]1[C@H](O)[C@H](NC(C)=O)C(O)O[C@@H]1CO (stereo partly drawn) [Man2,4diNAc] | 30.3 ± 0.3% | 51.5 ± 0.9% | 5.5 ± 0.1% | –
9 | [N-]=[N+]=NC1C(O)OC(CO)[C@@H](O)[C@@H]1O (stereo partly drawn) [Man2N3] | Trace | 57.6 ± 0.1% | – | –
10 | CC(=O)N[C@@H]1C(O)O[C@H](CO)[C@@H](N=[N+]=[N-])[C@@H]1O (stereo partly drawn) [ManNAc4N3] | 72.5 ± 0.1% | 84.4 ± 1.6% | 50.6 ± 0.5% | –
11 | CC(=O)N[C@@H]1C(O)O[C@H](CN=[N+]=[N-])[C@@H](O)[C@@H]1O (stereo partly drawn) [ManNAc6N3] | 96.0 ± 2.1% | >99% | 55.5 ± 0.6% | –
12 | CC(=O)N[C@H]1[C@@H](O)[C@H](O)[C@@H](CO)O[C@@H]1O [ManNAc] | 71.1 ± 0.4% | >99% | 37.6 ± 0.4% | –
13 | [N-]=[N+]=NCC(=O)NC1C(O)OC(CO)C(O)C1O (stereo not drawn) [ManNAz] | 98.4 ± 1.8% | >99% | 57.3 ± 0.4% | –
14 | O=C(CO)N[C@@H]1C(O)O[C@H](CO)[C@@H](O)[C@@H]1O (stereo partly drawn) [ManNGc] | 71.6 ± 2.5% | >99% | 13 ± 0.4% | –
15 | O=C[C@@H](O)[C@@H](O)[C@H](O)[C@H](O)CO [Mannose] | 5.0 ± 0.3% | 77.7 ± 1.6% | – | –
16 | [Cl-].[Cl-].[Mg+2] [Mg^2+, MgCl2] | – | – | – | Effect on the activity of AbGtr18 [4]: no significant effect; Effect of increasing Mg^2+ concentration on the activity of His6-AbGtr18 ([4]; up to 50 mM): decrease the activity
17 | [Cl][Mn][Cl] [Mn^2+, MnCl2] | – | – | – | Effect on the activity of AbGtr18 [4]: almost abolished its activity completely
18 | CC(=O)N[C@H]1[C@H]([C@@H](O)[C@@H](O)CO)O[C@@](O)(C(=O)O)C[C@@H]1O [Neu5Ac] | 93.3 ± 0.6% | >99% | 47.4 ± 1.7% | Suitability as donor substrate for MBP-AbGtr18-His6 (in words) [2]: efficient
19 | [Cl-].[Cl-].[Zn+2] [Zn^2+, ZnCl2] | – | – | – | Effect on the activity of AbGtr18 [4]: almost abolished its activity completely
20 | GalNAcα2AA | – | – | – | Activity of His6-AbGtr18 towards acceptor (in words) [1]: most reactive; Yield (%) 15 min [1]: 35.7 ± 2.2%; Yield (%) 20 h [1]: 78.1 ± 0.6%

Source: patent US20250197905A1, “LEGIONAMINIC ACID GLYCOSYLTRANSFERASES FOR CHEMOENZYMATIC SYNTHESIS OF GLYCANS AND GLYCOCONJUGATES” (The Regents of the University of California, priority 2022, published 2025)
